Measurements from US8614217B2 (priority 2008, dated 2013).

Experiment: log P(HCOOH) (HPLC/MS)
Format: physicochemical
Details: HPLC on reversed phase columns, EEC directive 79/831 Annex V.A8; pH 2.7, 0.1% formic acid in water / acetonitrile gradient

Which log p does the source give for `C=C(C)OC(=O)Nc1nc(CON=C(c2ccccc2)n2nnnc2C)cs1` [Example 104] here?
The log p was 2.96.

For `C=C(C)OC(=O)Nc1cccc(CON=C(c2ccccc2)n2nnnc2C)n1` [Example 107], which log p is on record?
The log p was 3.21.

With `Cc1nnnn1C(=NOCc1cccc(NC(=O)C2(c3ccccc3)CC2)n1)c1ccccc1` [Example 110] as the molecule, how does the log p read?
Its log p is 2.55.

Which log p does the source give for `Cc1nnnn1C(=NOCc1cccc(NC(=O)C(F)(F)C(F)(F)C(F)(F)C(F)(F)C(F)(F)C(F)(F)C(F)(F)F)n1)c1ccccc1` [Example 119] here?
Its log p is 5.93.

With `Cc1nnnn1C(=NOCc1cccc(NC(=O)c2ccc(Cl)nc2)n1)c1ccccc1` [Example 121] as the molecule, how does the log p read?
The log p was 3.15.

Which log p does the source give for `Cc1nnnn1C(=NOCc1cccc(NC(=O)CC2CC2)n1)c1ccccc1` [Example 124] here?
The log p was 2.94.

For `Cc1nnnn1C(=NOCc1cccc(NC(=O)CO[C@@H]2C[C@H](C)CC[C@H]2C(C)C)n1)c1ccccc1` [Example 126], which log p is on record?
The log p was 5.95.

Which log p does the source give for `Cc1nnnn1C(=NOCc1cccc(NC(=O)C2CCC(=O)O2)n1)c1ccccc1` (stereo not shown) [Example 130] here?
Its log p is 2.44.

Which log p does the source give for `Cc1nnnn1C(=NOCc1cccc(NC(=O)COCc2ccccc2)n1)c1ccccc1` [Example 144] here?
Its log p is 3.73.

For `COC(=O)CCCCC(=O)Nc1cccc(CON=C(c2ccccc2)n2nnnc2C)n1` [Example 145], which log p is on record?
Its log p is 2.86.

With `CCOC(=O)CCCC(=O)Nc1cccc(CON=C(c2ccccc2)n2nnnc2C)n1` [Example 148] as the molecule, how does the log p read?
Its log p is 2.98.

With `Cc1nnnn1C(=NOCc1cccc(NC(=O)CSCc2ccccc2)n1)c1ccccc1` [Example 151] as the molecule, how does the log p read?
The log p was 3.73.

With `Cn1nnnc1C(=NOCc1csc(NC(=O)CC2CC2)n1)c1cccc(F)c1` [Example 170] as the molecule, how does the log p read?
Its log p is 2.98.

With `CC1CCC(C(C)C)C(OCC(=O)Nc2nc(CON=C(c3cccc(F)c3)c3nnnn3C)cs2)C1` (stereo not shown) [Example 172] as the molecule, how does the log p read?
Its log p is 5.47.

With `COCCOCC(=O)Nc1nc(CON=C(c2cccc(F)c2)c2nnnn2C)cs1` [Example 183] as the molecule, how does the log p read?
Its log p is 2.68.

For `COCCOCCOCC(=O)Nc1nc(CON=C(c2cccc(F)c2)c2nnnn2C)cs1` [Example 186], which log p is on record?
The log p was 2.66.

Which log p does the source give for `Cn1nnnc1C(=NOCc1csc(NC(=O)C(F)(F)C(F)(F)C(F)(F)F)n1)c1cccc(F)c1` [Example 192] here?
Its log p is 3.75.

With `Cn1nnnc1C(=NOCc1csc(NC(=O)CSCc2ccccc2)n1)c1cccc(F)c1` [Example 194] as the molecule, how does the log p read?
Its log p is 3.68.

With `Cn1nnnc1C(=NOCc1csc(NC(=O)CCCOc2ccccc2)n1)c1cccc(F)c1` [Example 196] as the molecule, how does the log p read?
The log p was 3.7.

Which log p does the source give for `CC(=O)OCCCCOC(=O)Nc1nc(CON=C(c2cccc(F)c2)c2nnnn2C)cs1` [Example 198] here?
The log p was 3.15.

Which log p does the source give for `Cn1nnnc1C(=NOCc1csc(NC(=O)CCC2CCCCC2)n1)c1ccccc1` [Example 206] here?
Its log p is 4.3.

With `Cn1nnnc1C(=NOCc1cccc(NC(=O)c2cccs2)n1)c1ccccc1` [Example 214] as the molecule, how does the log p read?
The log p was 3.21.

For `Cn1nnnc1C(=NOCc1cccc(NC(=O)CSCc2ccccc2)n1)c1ccccc1` [Example 218], which log p is on record?
The log p was 3.73.

Which log p does the source give for `Cn1nnnc1C(=NOCc1cccc(NC(=O)CCCc2ccsc2)n1)c1ccccc1` [Example 221] here?
The log p was 3.7.

Which log p does the source give for `Cc1nnnn1C(=NOCc1csc(NC(=O)CCCC2CCCCC2)n1)c1ccccc1` [Example 229] here?
The log p was 4.82.

With `Cn1nnnc1C(=NOCc1csc(NC(=O)Cc2ccsc2)n1)c1cccc(F)c1` [Example 233] as the molecule, how does the log p read?
The log p was 3.21.

For `Cn1nnnc1C(=NOCc1csc(NC(=O)OCC(Cl)(Cl)Cl)n1)c1ccccc1` [Example 245], which log p is on record?
Its log p is 3.7.

Same assay, conditions: HPLC on reversed phase columns, EEC directive 79/831 Annex V.A8; pH 2.7 with 0.1% formic acid in water and acetonitrile

For `Cn1nnnc1C(=NOCc1csc(NC(=O)COc2ccccc2Cl)n1)c1ccccc1` [Example 247], which log p is on record?
The log p was 3.61.

With `Cn1nnnc1C(=NOCc1csc(NC(=O)c2cccc(Cl)c2)n1)c1ccccc1` [Example 248] as the molecule, how does the log p read?
The log p was 3.73.

Which log p does the source give for `Cn1nnnc1C(=NOCc1csc(NC(=O)COc2cccc(Cl)c2)n1)c1ccccc1` [Example 249] here?
Its log p is 3.7.

With `Cn1nnnc1C(=NOCc1csc(NC(=O)COc2ccc(Cl)cc2)n1)c1ccccc1` [Example 250] as the molecule, how does the log p read?
Its log p is 3.68.

For `CCCCc1ccc(C(=O)Nc2nc(CON=C(c3ccccc3)c3nnnn3C)cs2)cc1` [Example 268], which log p is on record?
The log p was 4.68.

For `CCOc1ccc(C(=O)Nc2nc(CON=C(c3ccccc3)c3nnnn3C)cs2)cc1` [Example 271], which log p is on record?
Its log p is 3.64.

Which log p does the source give for `Cn1nnnc1C(=NOCc1csc(NC(=O)CC23CC4CC(CC(C4)C2)C3)n1)c1ccccc1` [Example 278] here?
Its log p is 4.69.

With `CC1CCC(C(C)C)C(OCC(=O)Nc2nc(CON=C(c3ccccc3)c3nnnn3C)cs2)C1` (stereo not shown) [Example 284] as the molecule, how does the log p read?
Its log p is 5.39.

With `COCCOCC(=O)Nc1nc(CON=C(c2ccccc2)c2nnnn2C)cs1` [Example 286] as the molecule, how does the log p read?
Its log p is 2.54.

Which log p does the source give for `Cn1nnnc1C(=NOCc1csc(NC(=O)COc2ccccc2-c2ccccc2)n1)c1ccccc1` [Example 289] here?
The log p was 4.32.

With `COC(=O)CCCCC(=O)Nc1nc(CON=C(c2cccc(F)c2)c2nnnn2C)cs1` [Example 298] as the molecule, how does the log p read?
The log p was 2.94.

Which log p does the source give for `COCCOC(=O)Nc1nc(CON=C(c2cccc(F)c2)c2nnnn2C)cs1` [Example 301] here?
Its log p is 2.66.

With `Cc1ccc(C(=O)Nc2cccc(CON=C(c3ccccc3)c3nnnn3C)n2)cc1` [Example 306] as the molecule, how does the log p read?
Its log p is 3.65.

With `Cc1ccccc1C(=O)Nc1cccc(CON=C(c2ccccc2)c2nnnn2C)n1` [Example 307] as the molecule, how does the log p read?
The log p was 3.5.

Which log p does the source give for `CCOc1cccc(C(=O)Nc2cccc(CON=C(c3ccccc3)c3nnnn3C)n2)c1` [Example 313] here?
Its log p is 3.79.

For `COc1ccccc1C(=O)Nc1nc(CON=C(c2ccccc2)c2nnnn2C)cs1` [Example 322], which log p is on record?
Its log p is 3.5.

With `Cn1nnnc1C(=NOCc1csc(NC(=O)c2ccccc2OC(F)(F)F)n1)c1ccccc1` [Example 325] as the molecule, how does the log p read?
Its log p is 3.61.

For `Cc1ccccc1C(=O)Nc1nc(CON=C(c2ccccc2)c2nnnn2C)cs1` [Example 327], which log p is on record?
The log p was 3.41.

Which log p does the source give for `Cn1nnnc1C(=NOCc1cccc(NC(=O)c2ccccc2OC(F)(F)F)n1)c1cccc(F)c1` [Example 328] here?
Its log p is 3.9.

For `Cn1nnnc1C(=NOCc1cccc(NC(=O)c2ccc(F)cc2)n1)c1cccc(F)c1` [Example 329], which log p is on record?
Its log p is 3.57.

Which log p does the source give for `Cc1ccccc1C(=O)Nc1cccc(CON=C(c2cccc(F)c2)c2nnnn2C)n1` [Example 331] here?
Its log p is 3.61.

For `Cn1nnnc1C(=NOCc1csc(NC(=O)c2ccc(Cl)cc2)n1)c1ccccc1` [Example 333], which log p is on record?
Its log p is 3.74.

Which log p does the source give for `Cc1ccc(C(=O)Nc2nc(CON=C(c3ccccc3)c3nnnn3C)cs2)cc1` [Example 335] here?
The log p was 3.59.

For `Cn1nnnc1C(=NOCc1csc(NC(=O)c2cc(F)cc(F)c2)n1)c1ccccc1` [Example 340], which log p is on record?
Its log p is 3.63.

With `COc1ccccc1C(=O)Nc1cccc(CON=C(c2cccc(F)c2)c2nnnn2C)n1` [Example 345] as the molecule, how does the log p read?
Its log p is 3.79.

Which log p does the source give for `Cc1ccc(C(=O)Nc2cccc(CON=C(c3cccc(F)c3)c3nnnn3C)n2)c(Cl)c1` [Example 354] here?
The log p was 3.9.

Which log p does the source give for `Cn1nnnc1C(=NOCc1cccc(NC(=O)c2cccnc2Cl)n1)c1cccc(F)c1` [Example 360] here?
The log p was 2.94.

With `Cn1nnnc1C(=NOCc1cccc(NC(=O)c2ccccc2Cl)n1)c1cccc(F)c1` [Example 362] as the molecule, how does the log p read?
The log p was 3.57.

With `Cn1nnnc1C(=NOCc1cccc(NC(=O)c2ccccc2Br)n1)c1cccc(F)c1` [Example 365] as the molecule, how does the log p read?
The log p was 3.59.

With `Cn1nnnc1C(=NOCc1cccc(NC(=O)c2ccccc2F)n1)c1cccc(F)c1` [Example 366] as the molecule, how does the log p read?
Its log p is 3.65.

Which log p does the source give for `C#CCCOC(=O)Nc1cccc(CON=C(c2cccc(F)c2)c2nnnn2C)n1` [Example 374] here?
The log p was 3.21.
